pEC50: −log10 of the molar value.
Legend:
[1] = target: T1, CFTR (Homo sapiens, UniProt P13569); test: Membrane Potential Dye, Enteroid Assay B; type: cell-based; details: for pEC50: read-out: Ent. B EC50
Protocol: Base medium (ADF+++) consisted of Advanced DMEM/Ham's F12, 2 mM Glutamax, 10 mM HEPES, […] penicillin/streptomycin.
Bath 1 Buffer consisted of 1 mM MgCl2, 160 mM NaCl, 4.5 mM KCl, 10 mM HEPES, 10 mM Glucose, 2 mM CaCl2).
Chloride Free Buffer consisted of 1 mM Magnesium Gluconate, 2 mM Calcium Gluconate, 4.5 mM Potassium Gluconate, 160 mM Sodium Gluconate, 10 mM HEPES, 10 mM Glucose.
Bath 1 Dye Solution consisted of Bath 1 Buffer, 0.04% Pluronic F127, 20 μM Methyl Oxonol, 30 μM CaCCinh-A01, 30 μM Chicago Sky Blue.
Chloride Free Dye Solution consisted of Chloride Free Buffer, 0.04% Pluronic F127, 20 μM Methyl Oxonol, 30 μM CaCCinh-A01, 30 μM Chicago Sky Blue.
3. Enteroid Cell Harvesting and Seeding
Cells were recovered in cell recovery solution, collected by centrifugation at 650 rpm for 5 min at 4° C., resuspended in TryPLE and incubated for 5 min at 37° C. Cells were then collected by centrifugation at 650 rpm for 5 min at 4° C. and resuspended in IEMM containing 10 μM ROCK inhibitor (RI).
5. Membrane Potential Dye, Enteroid Assay B
Briefly, cells were washed 5 times in Bath 1 Buffer. Bath 1 Dye Solution was added and the cells were incubated for 25 min at room temperature. Following dye incubation, cells were washed 3 times in Chloride Free Dye Solution. Chloride transport was initiated by addition of Chloride Free Dye Stimulation Solution and the fluorescence signal was read for 15 min.

[2] = target: T1, CFTR; test: Membrane Potential Dye, Enteroid Assay A; type: cell-based; details: for pEC50: read-out: Ent. A EC50
How it was run: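 Signal is reported as % Activity relative to a triple CFTR modulator control (3 μM + 3 μM + 300 nM acute). Read-out: membrane potential fluorescence (20 μM methyl oxonol) monitored for 15 min after chloride-free stimulation. Dye loading took 25 min at room temperature in Bath 1 buffer containing CaCC blockers.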

T1 sequence (P13569 with tags, fused parts or gaps DEL508-508): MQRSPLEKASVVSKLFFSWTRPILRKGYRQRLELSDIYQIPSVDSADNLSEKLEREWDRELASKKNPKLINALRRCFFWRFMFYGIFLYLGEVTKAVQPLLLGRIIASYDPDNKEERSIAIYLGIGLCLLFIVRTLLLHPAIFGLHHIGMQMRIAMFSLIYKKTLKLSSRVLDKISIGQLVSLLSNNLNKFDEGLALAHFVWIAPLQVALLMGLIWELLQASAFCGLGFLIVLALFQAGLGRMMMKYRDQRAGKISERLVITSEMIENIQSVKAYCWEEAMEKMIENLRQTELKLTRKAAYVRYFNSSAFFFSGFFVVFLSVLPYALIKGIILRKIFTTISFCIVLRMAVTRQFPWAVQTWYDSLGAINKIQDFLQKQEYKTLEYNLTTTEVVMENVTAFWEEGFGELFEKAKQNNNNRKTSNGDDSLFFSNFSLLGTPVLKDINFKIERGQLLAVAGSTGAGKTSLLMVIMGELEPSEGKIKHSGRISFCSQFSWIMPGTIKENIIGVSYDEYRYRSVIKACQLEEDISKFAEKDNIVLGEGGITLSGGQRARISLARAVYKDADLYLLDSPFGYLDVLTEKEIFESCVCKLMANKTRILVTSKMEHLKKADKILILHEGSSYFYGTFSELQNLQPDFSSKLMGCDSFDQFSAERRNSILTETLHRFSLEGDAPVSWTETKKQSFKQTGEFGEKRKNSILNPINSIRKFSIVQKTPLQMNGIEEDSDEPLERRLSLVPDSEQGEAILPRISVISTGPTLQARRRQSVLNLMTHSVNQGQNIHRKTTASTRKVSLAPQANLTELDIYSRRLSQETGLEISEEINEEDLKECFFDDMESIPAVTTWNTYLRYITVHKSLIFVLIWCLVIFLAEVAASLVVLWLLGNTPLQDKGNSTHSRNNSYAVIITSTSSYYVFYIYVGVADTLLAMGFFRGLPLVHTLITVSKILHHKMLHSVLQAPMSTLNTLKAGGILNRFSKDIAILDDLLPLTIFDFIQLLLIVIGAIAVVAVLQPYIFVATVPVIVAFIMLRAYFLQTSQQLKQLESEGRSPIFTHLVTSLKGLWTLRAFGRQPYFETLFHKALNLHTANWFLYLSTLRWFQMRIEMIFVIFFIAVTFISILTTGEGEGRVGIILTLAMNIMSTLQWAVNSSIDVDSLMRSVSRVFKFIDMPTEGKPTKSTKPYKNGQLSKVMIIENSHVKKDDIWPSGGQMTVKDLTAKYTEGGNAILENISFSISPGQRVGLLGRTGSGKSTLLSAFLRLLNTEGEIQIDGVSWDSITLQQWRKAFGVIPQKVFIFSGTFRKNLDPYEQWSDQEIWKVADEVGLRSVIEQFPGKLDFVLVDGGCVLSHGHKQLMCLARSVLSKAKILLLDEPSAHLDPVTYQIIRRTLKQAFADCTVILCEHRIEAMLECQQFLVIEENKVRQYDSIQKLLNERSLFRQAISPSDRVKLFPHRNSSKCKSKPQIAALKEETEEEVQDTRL

Structure (SMILES) | Ent. B Max Activity ([1]; Table 9) | pEC50 ([1]; Table 9) | Ent. A Max Activity ([2]; Table 9) | pEC50 ([2]; Table 9) | also measured
Cc1cccc(C)c1-c1cc2nc(n1)NS(=O)(=O)c1cccc(c1)C(=O)NC[C@@H](c1ccc(CCC3(C(F)(F)F)CC3)cc1)O2 [Compound 146] | +++ (+++ is >60%) | > 6.00 | +++ (+++ is >60%) | > 6.00 | –
Cc1cccc(C)c1-c1cc2nc(n1)NS(=O)(=O)c1cccc(c1)C(=O)N[C@H](C)CO2 [Compound 95, (11R)-6-(2,6-Dimethylphenyl)-11-methyl-9-oxa-2λ^6-thia-3,5,12,19-tetraazatricyclo[12.3.1.14,8]nonadeca-1(17),4,6,8(19),14(18),15-hexaene-2,2,13-trione] | – | – | – | – | Ent. B Max Activity ([1]; Enteroid Assay B): ++ (++ is 30-60%); pEC50 ([1]; Enteroid Assay B): 4.52 to 5.52; Ent. A Max Activity ([2]; Enteroid Assay A): ++ (++ is 30-60%)
Cc1cccc(C)c1-c1cc2nc(n1)NS(=O)(=O)c1cccc(c1)C(=O)N[C@H](CC(C)C)[C@@H](c1ccc(C(C)(C)C)cc1)O2 (single isomer, unassigned) [Compound 40] | +++ (+++ is >60%) | – | +++ (+++ is >60%) | > 6.00 | –
Cc1cccc(C)c1-c1cc2nc(n1)NS(=O)(=O)c1cccc(c1)C(=O)N[C@@H]1CN(CCC3(C(F)(F)F)CC3)C[C@H]1O2 [Compound 378] | +++ (+++ is >60%) | > 6.00 | +++ (+++ is >60%) | > 6.00 | –
Cc1cccc(C)c1-c1cc2nc(n1)NS(=O)(=O)c1cccc(c1)C(=O)N[C@@H]1CN(c3ccc(C(F)(F)F)cn3)C[C@H]1O2 [Compound 62, (3R,7R)-19-(2,6-Dimethylphenyl)-5-[5-(trifluoromethyl)pyridin-2-yl]-2-oxa-15λ^6-thia-5,8,16,18,21-pentaazatetracyclo[15.3.1.110,14.03,7]docosa-1(20),10(22),11,13,17(21),18-hexaene-9,15,15-trione] | ++ (++ is 30-60%) | > 6.00 | +++ (+++ is >60%) | > 6.00 | –
Cc1cccc(C)c1-c1cc2nc(n1)NS(=O)(=O)c1cccc(c1)C(=O)N[C@@H](C(CC(C)C)c1ccccc1)CO2 (stereo in doubt) [Compound 181] | +++ (+++ is >60%) | > 6.00 | +++ (+++ is >60%) | > 6.00 | –
CCC(C)(C)C(=O)N1C[C@H]2NC(=O)c3cccc(c3)S(=O)(=O)Nc3nc(cc(-c4c(C)cccc4C)n3)O[C@@H]2C1 [Compound 369] | ++ (++ is 30-60%) | – | +++ (+++ is >60%) | 4.52 to 5.52 | –
Cc1cccc(C)c1-c1cc2nc(n1)NS(=O)(=O)c1cccc(c1)C(=O)NC[C@@H](c1ccc(CC(C)(C)C)cc1)O2 [Compound 263] | ++ (++ is 30-60%) | > 6.00 | +++ (+++ is >60%) | > 6.00 | –
Cc1cccc(C)c1-c1cc2nc(n1)NS(=O)(=O)c1cccc(c1)C(=O)NCC(c1ccc([Si](C)(C)C)cc1)O2 (single isomer, unassigned) [Compound 17, 6-(2,6-dimethylphenyl)-2,2-dioxo-10-(4-trimethylsilylphenyl)-9-oxa-2λ^6-thia-3,5,12,19-tetrazatricyclo[12.3.1.14,8]nonadeca-1(18),4(19),5,7,14,16-hexaen-13-one] | – | > 6.00 | – | > 6.00 | –
Cc1cccc(C)c1-c1cc2nc(n1)NS(=O)(=O)c1cccc(c1)C(=O)NCC(c1ccc(C3(C(F)(F)F)CC3)cc1)O2 (single isomer, unassigned) [Compound 11, 6-(2,6-Dimethylphenyl)-2,2-dioxo-10-[4-[1-(trifluoromethyl)cyclopropyl]phenyl]-9-oxa-2λ^6-thia-3,5,12,19-tetrazatricyclo[12.3.1.14,8]nonadeca-1(18),4(19),5,7,14,16-hexaen-13-one] | – | – | – | – | Ent. B Max Activity ([1]; Table 8): +++ (+++ is >60%); pEC50 ([1]; Table 8): > 6.00; Ent. A Max Activity ([2]; Table 8): +++ (+++ is >60%); pEC50 ([2]; Table 8): > 6.00
Cc1cccc(C)c1-c1cc2nc(n1)NS(=O)(=O)c1cccc(c1)C(=O)NCC(c1ccc(C34CC(C3)C4)cc1)O2 (stereo not shown) [Compound 396] | ++ (++ is 30-60%) | > 6.00 | +++ (+++ is >60%) | > 6.00 | –
Cc1cccc(C)c1-c1cc2nc(n1)NS(=O)(=O)c1cccc(c1)C(=O)N[C@@H]1CN(C3CC4(CCCCC4)C3)C[C@H]1O2 [Compound 377] | ++ (++ is 30-60%) | > 6.00 | +++ (+++ is >60%) | > 6.00 | –
Cc1cccc(CC2CC2)c1-c1cc2nc(n1)NS(=O)(=O)c1cccc(c1)C(=O)N[C@H](CC(C)C)CO2 [Compound 107, (11R)-6-[2-(cyclopropylmethyl)-6-methyl-phenyl]-11-isobutyl-2,2-dioxo-9-oxa-2λ^6-thia-3,5,12,19-tetrazatricyclo[12.3.1.14,8]nonadeca-1(18),4(19),5,7,14,16-hexaen-13-one] | +++ (+++ is >60%) | > 6.00 | +++ (+++ is >60%) | > 6.00 | –
Cc1cccc(C)c1-c1cc2nc(n1)NS(=O)(=O)c1cccc(c1)C(=O)NC[C@H](c1ccc(/C=C/C(C)(C)C)cc1)O2 (stereo in doubt) [Compound 151] | +++ (+++ is >60%) | > 6.00 | +++ (+++ is >60%) | > 6.00 | –
Cc1cccc(C)c1-c1cc2nc(n1)NS(=O)(=O)c1cccc(c1)C(=O)N[C@@H]1CN(c3ncc(C(F)(F)F)cn3)C[C@H]1O2 [Compound 372] | ++ (++ is 30-60%) | > 6.00 | +++ (+++ is >60%) | > 6.00 | –
Cc1cccc(C)c1-c1cc2nc(n1)NS(=O)(=O)c1cccc(c1)C(=O)N[C@@H](C(CC(C)C)c1ccccc1)CO2 (stereo in doubt) [Compound 183] | +++ (+++ is >60%) | > 6.00 | +++ (+++ is >60%) | > 6.00 | –
Cc1cccc(C)c1-c1cc2nc(n1)NS(=O)(=O)c1cccc(c1)C(=O)N[C@@H]1CN(Cc3ccc(C(C)(C)C)cc3)C[C@H]1O2 [Compound 63, (3R,7R)-5-[(4-tert-Butylphenyl)methyl]-19-(2,6-dimethylphenyl)-2-oxa-15λ^6-thia-5,8,16,18,21-pentaazatetracyclo[15.3.1.110,14.03,7]docosa-1(20),10(22),11,13,17(21),18-hexaene-9,15,15-trione] | +++ (+++ is >60%) | > 6.00 | +++ (+++ is >60%) | > 6.00 | –
Cc1cccc(C)c1-c1cc2nc(n1)NS(=O)(=O)c1cccc(c1)C(=O)NC(C)(CC(C)C)CO2 (stereo not shown) [Compound 177] | +++ (+++ is >60%) | > 6.00 | +++ (+++ is >60%) | > 6.00 | –
